Values of other authors as cited in US20260110003A1 (Solugen, Inc., priority 2022, published 2026).

Legend:
[1] = for Prefers Phase: aqueous (Aq) or organic (Org) phase in the MPER; for LogP: partition coefficient, <0 preference for aqueous, >0 for organic
[2] = relative to VvSucA

Prefers Phase [1]	LogP [1]	Molecule	more acetoin produced than VvSucA [2] [%]
Both		CCO [Ethanol]	
Org	0.4	CCOC(=O)C(C)=O [Ethyl Pyruvate]	
Aq	<<0	CC(=O)C(=O)O [Pyruvate ion]	
Aq	−0.3	CC(=O)C(=O)O [Pyruvic Acid]	
		ZmPDC: Zymomonas mobilis pyruvate decarboxylase (protein, UniProt P06672 1-568, looked up) Pyruvate decarboxylase: MSYTVGTYLAERLVQIGLKHHFAVAGDYNLVLLDNLLLNKNMEQVYCCNELNCGFSAEGYARAKGAAAAVVTYSVGALSAFDAIGGAYAENLPVILISGAPNNNDHAAGHVLHHALGKTDYHYQLEMAKNITAAAEAIYTPEEAPAKIDHVIKTALREKKPVYLEIACNIASMPCAAPGPASALFNDEASDEASLNAAVEETLKFIANRDKVAVLVGSKLRAAGAEEAAVKFADALGGAVATMAAAKSFFPEENPHYIGTSWGEVSYPGVEKTMKEADAVIALAPVFNDYSTTGWTDIPDPKKLVLAEPRSVVVNGIRFPSVHLKDYLTRLAQKVSKKTGALDFFKSLNAGELKKAAPADPSAPLVNAEIARQVEALLTPNTTVIAETGDSWFNAQRMKLPNGARVEYEMQWGHIGWSVPAAFGYAVGAPERRNILMVGDGSFQLTAQEVAQMVRLKLPVIIFLINNYGYTIEVMIHDGPYNNIKNWDYAGLMEVFNGNGGYDSGAGKGLKAKTGGELAEAIKVALANTDGPTLIECFIGREDCTEELVKWGKRVAAANSRKPVNKLL	57

Molecule	Prefers Phase [1]	LogP [1]	more acetoin produced than VvSucA [2] [%]
CC=O [Acetaldehyde]	Aq	−0.34	
